Measured values: patent publication US20230159583A1, “COMPOUND FOR TREATING GOUT, PREPARATION METHOD THEREFOR, AND USE THEREOF” (Huazhong Pharmaceutical Co., Ltd., priority 2020, published 2023)
Read-outs that look alike come from different tables or passages of the source.

Columns and labels:
Format in all cases: in vivo
[1] = test system: carrageenan-induced mouse paw swelling; test: carrageenan-induced mouse paw swelling model; details: for Circumference of the paw after administration: 180 min after onset of inflammation (0.5% carrageenan); for inhibition in vivo at 0.26 mg/kg / inhibition in vivo at 13 mg/kg / inhibition in vivo at 130 mg/kg / change in vivo at 130 mg/kg: Mus musculus, po, 3 h; for inhibition in vivo at 0.26 mg/kg: dosage 0.26 mg/kg; for inhibition in vivo at 0.26 mg/kg / inhibition in vivo at 13 mg/kg / inhibition in vivo at 130 mg/kg: read-out: Swelling inhibition rate; for inhibition in vivo at 13 mg/kg: dosage 13 mg/kg; for change in vivo at 130 mg/kg: read-out: Swelling degree
Protocol: The anti-inflammatory effects of the compounds prepared in the above Examples were detected using a carrageenan-induced mouse paw swelling model, and the control sample was methylprednisolone:
Carrageenan-induced mouse paw swelling model is a classical acute inflammation model commonly used for evaluating or screening anti-inflammatory effects of drugs. When carrageenan is injected into the paw of mice, a series of reactions similar to human acute inflammation such as local capillary dilatation, increased vascular permeability, exudation and edema can be caused, so the model can be widely used in the evaluation of new drugs.
Reference for experimental method: Yang Huan, Cheng Xiao, Wang Yuehua, Du Guanhua. Effects of esculin on the swelling of toes and inflammation induced by carrageenan in mice [J]. Chinese Journal of New Drugs, 2016(25):2322.
On the day of the experiment, the circumference of right hind paw (cm) of each mouse was measured firstly, and then, after the onset of inflammation, the circumference of right hind paw was measured so that the difference of the circumferences of the paws before and after inflammation was swelling degree, and the swelling inhibition rate of paw (swelling inhibition rate %=(C−T)/C*100%); C=swelling rate of the control group %, and T=swelling rate of the treatment group) was calculated.
(2) Gavage administration was performed once a day for seven consecutive days. The circumference of the right hind paw was marked and measured before the last administration, and the average value of the two measurements was taken as the standard. 30 min after the last administration, 20 μL/mice of 0.5% carrageenan was injected into the right hind ankle of the mice to induce inflammation, and the circumference of paw was measured 180 min after the onset of inflammation. […]

[2] = test system: rat paw swelling induced by monosodium urate (MSU); test: rat paw swelling model induced by monosodium urate (MSU); details: for inhibition in vivo at 90 mg/kg / inhibition in vivo at 0.36 mg/kg / inhibition in vivo at 1.8 mg/kg / inhibition in vivo at 9 mg/kg / change in vivo at 90 mg/kg: Rattus norvegicus, po; for inhibition in vivo at 90 mg/kg / inhibition in vivo at 0.36 mg/kg / inhibition in vivo at 1.8 mg/kg / inhibition in vivo at 9 mg/kg: 1 h, read-out: Swelling inhibition rate; for inhibition in vivo at 0.36 mg/kg: dosage 0.36 mg/kg; for inhibition in vivo at 1.8 mg/kg: dosage 1.8 mg/kg; for inhibition in vivo at 9 mg/kg: dosage 9 mg/kg; for change in vivo at 90 mg/kg: read-out: Swelling degree; for Mean volume of paw after administration: 1 h after onset of inflammation (50 μL 2% MSU)
Text: Gout is a disease unique to human, and gouty arthritis is an inflammatory reaction caused by the deposition of monosodium urate (MSU) in local joint tissues. Since purine metabolism pathways in some mammals such as mice and rabbits are different from those in humans, it is impossible to construct a gouty arthritis model by the method of interfering with purine metabolism disorders, so the most direct method for causing gouty arthritis is to directly inject MSU into the joint cavity of the model animal. The model is only used for simulating local joint inflammation of gout, is suitable for observation of local arthritis symptoms, is a common method for screening anti-inflammatory effects of gout drugs at present, and has the advantages of stability, easy operation and the like. (Reference: Li Na, Hua Long, and Yuan Hui. Research progress of gout animal models [J]. Medical theory and practice, 2016(24).
The anti-gout effect of the compound prepared in the above Example was detected by using a rat paw swelling model induced by monosodium urate (MSU), and the control sample was methylprednisolone.
Experimental method: MSU was used as an inflammatory agent, injected subcutaneously into the hind paws of rats to cause paw swelling, and then the volume of the paws was measured, and the swelling rates and swelling inhibition rates of the treatment group and the control group were compared. On the day of the experiment, the volume of right hind paw (ml) of each rat was measured firstly, and then after the onset of inflammation, the volume of right hind paw was measured so that the difference of volume of paw before and after inflammation was swelling degree, and the swelling inhibition rate of paw (swelling inhibition rate %=(C−T)/C*100%); C=swelling rate of the control group %, and T=swelling rate of the treatment group) was calculated. This method is one of the commonly used methods for screening anti-inflammatory effects of gout drugs, and the model is stable and easy to operate.
(2) One week before the subcutaneous injection of MSU into the feet and soles of the rats, the rats were given different doses of the test drugs, and the drugs were given by gavage once a day, for seven consecutive days. The circumference of the right hind paw was marked and measured before the last administration, and the average value of the two measurements was taken as the standard. 1 h after the last administration, animals in other groups were given 50 μL of 2% MSU in addition to the blank control group, and the paw circumference was measured 1 h after the onset of inflammation. […]

ICR mice = details: p.o.
Protocol: The experiment was designed according to the “Technical Guideline for Acute Toxicity Test of Chemical Drugs” issued by the State Food and Drug Administration in March 2005. The doses administered were 4 g/kg, 4.91 g/kg, 6.14 g/kg, 7.68 g/kg, 9.6 g/kg, 12 g/kg, and 15 g/kg (the dose could be adjusted according to the actual test results), 12 ICR mice per dose group. If the administration volume is greater than 0.5 ml, it is better to perform the drug administration in two or more times (Note: according to the national standard GB 15193.3-2014, if multiple drug administrations are required, the time interval should be 4 h to 6 h each time, and the patient should be fasted on the day before drug administration).

[3] = ICR mice, 130 mg/kg by gavage once a day for seven days, 180 min after onset of inflammation
[4] = ICR mice, 130 mg/kg by gavage once a day for seven days
[5] = mouse, carrageenan-induced paw swelling
[6] = mouse, carrageenan-induced paw swelling, dosage 130 mg/kg
[7] = SD rats, 90 mg/kg by gavage once a day for seven days, 1 h after onset of inflammation
[8] = rat, MSU-induced paw swelling, dosage 90 mg/kg
[9] = SD rats, 90 mg/kg by gavage once a day for seven days

SMILES | Swelling value [1, 3] | Circumference of the paw after administration [1, 4] | inhibition in vivo at 0.26 mg/kg [1, 5] | inhibition in vivo at 13 mg/kg [1, 5] | inhibition in vivo at 130 mg/kg [1, 6] | change in vivo at 130 mg/kg [1, 3] | inhibition in vivo at 130 mg/kg [1, 3] | inhibition in vivo at 90 mg/kg [2, 7] | inhibition in vivo at 0.36 mg/kg ([2]; rat, MSU-induced paw swelling) | inhibition in vivo at 1.8 mg/kg ([2]; rat, MSU-induced paw swelling) | inhibition in vivo at 9 mg/kg ([2]; rat, MSU-induced paw swelling) | inhibition in vivo at 90 mg/kg [2, 8] | change in vivo at 90 mg/kg [2, 7] | Swelling value [2, 7] | Mean volume of paw after administration [2, 9] | Mortality (ICR mice; 4 g/kg) | Mortality (ICR mice; 4.91 g/kg) | Mortality (ICR mice; 6.14 g/kg) | Mortality (ICR mice; 7.68 g/kg) | Mortality (ICR mice; 9.6 g/kg) | also measured
CC(=O)OC/C(=N\O)[C@@]1(O)CC[C@H]2[C@@H]3CCC4=CC(=NO)CC[C@]4(C)[C@H]3[C@@H](O)C[C@@]21C [Example 5, (2E)-2-((8S,9S,10R,11S,13S,14S,17R)-11,17-dihydroxy-3-(hydroxyimino)-10,13-dimethyl-2,3,6,7,8,9,10,11,12,13,14,15,16,17-tetrahydro-1H-cyclopentane[α]phenanthroyl)-2-(hydroxyimino)ethyl acetate] | 0.04 cm | 1.52 cm | 13.5% | 56.8% | 88.1% | 2.7% | 86% | 82.1% | 23.4% | 35.3% | 56.3% | 80.1% | 59% | 0.72 mL | 1.94 mL | 0/12 | 0/12 | 0/12 | 0/12 | 1/12 | Mortality (ICR mice; 12 g/kg): 2/12; Mortality (ICR mice; 15 g/kg): 4/12
CC1(C)O[C@@H]2C[C@H]3[C@@H]4C[C@H](F)C5=CC(=NO)C=C[C@]5(C)[C@@]4(F)[C@@H](O)C[C@]3(C)[C@]2(/C(CO)=N/O)O1 [Example 8, (2S,6aS,6bR,7S,8aS,8bR,11aR,12aS,12bS)-2,6b-difluoro-7-hydroxy-8b-((E)-2-hydroxy-1-(hydroxyimino)ethyl)-6a,8a,10,10-tetramethyl-1,2,6a,6b,7,8,8a,8b,11a,12,12a,12b-dodecahydro-4H-naphtho[2′,1′:4,5]indeno[1,2-d][1,3]dioxol-4-one oxime] | 0.02 cm | 1.49 cm | 24.5% | 46.8% | 93.2% | 1.36% | 93% | 91.8% | 17.2% | 32.1% | 41.2% | 93.5% | 26.8% | 0.33 mL | 1.56 mL | 0/12 | 0/12 | 0/12 | 0/12 | 0/12 | Mortality (ICR mice; 12 g/kg): 0/12; Mortality (ICR mice; 15 g/kg): 1/12
C[C@@H]1C[C@H]2[C@@H]3CCC4=CC(=NO)C=C[C@]4(C)[C@H]3[C@@H](O)C[C@]2(C)[C@H]1/C(CO)=N/O [Example 10] | 0.11 cm | 1.58 cm | 8.12% | 30.9% | 62.4% | 7.48% | 61.3% | 68.9% | 9.21% | 32.1% | 51.2% | 65.2% | 102% | 1.24 mL | 2.45 mL | 0/12 | 0/12 | 1/12 | 1/12 | 3/12 | Mortality (ICR mice; 12 g/kg): 4/12; Mortality (ICR mice; 15 g/kg): 5/12
CCON=C1C=C[C@@]2(C)C(=C1)CC[C@@H]1[C@@H]2[C@@H](O)C[C@@]2(C)[C@H]1C[C@@H](C)[C@]2(O)/C(COC(C)=O)=N/OCC [Example 11] | 0.1 cm | 1.53 cm | 15.5% | 35.8% | 68.1% | 6.99% | 63.9% | 64.7% | 10.2% | 35.2% | 49% | 67.5% | 116% | 1.42 mL | 2.64 mL | 0/12 | 0/12 | 0/12 | 0/12 | 0/12 | Mortality (ICR mice; 12 g/kg): 0/12; Mortality (ICR mice; 15 g/kg): 0/12
CCC(=O)OC/C(=N\O)[C@@]1(O)[C@H](O)C[C@H]2[C@@H]3CCC4=CC(=NO)C=C[C@]4(C)[C@@]3(F)[C@@H](O)C[C@@]21C [Example 14, (2E)-2-((8S,9R,10S,11S,13S,14S,16R,17R)-9-fluoro-11,16,17-trihydroxy (hydroxyimino)-10,13-dimethyl-6,7,8,9,10,11,12,13,14,15,16,17-dodecahydro-3H-cyclopentane[α]phenanthrene-17-yl)-2-(hydroxyimino)ethyl propionate] | 0.03 cm | 1.45 cm | 20.3% | 49.2% | 92.1% | 2.11% | 89.1% | 85.6% | 5.23% | 34.2% | 65.2% | 86.3% | 47.5% | 0.56 mL | 1.74 mL | 0/12 | 0/12 | 0/12 | 0/12 | 1/12 | Mortality (ICR mice; 12 g/kg): 1/12; Mortality (ICR mice; 15 g/kg): 3/12
